Results reported in patent US9133125B2, “Morphan and morphinan analogues, and methods of use” (priority 2013, dated 2015).

Test system: Male Sprague-Dawley rats
Assay: Thermal pain assay (rodent hot plate model)
Assay type: in vivo
Details: rat, dose of 10 mg/kg, subcutaneous

Compound	antinociceptive effect, hot plate
Cl.NC(=O)c1ccc2c(c1O)[C@]13CCN(CC4CCC4)[C@H](C2)[C@]1(O)CC[C@H](O)C3 [Compound C, (4bR,6S,8aS,9R)-11-(cyclobutylmethyl)-4,6,8a-trihydroxy-6,7,8,8a,9,10-hexahydro-5H-9,4b-(epiminoethano)phenanthrene-3-carboxamide]	no antinociceptive effect
Cl.NC(=O)c1ccc2c(c1O)[C@]13CCN(CC4CCC4)[C@H](C2)[C@]1(O)CC[C@@H](O)C3 [Compound D, (4bR,6R,8aS,9R)-11-(cyclobutylmethyl)-4,6,8a-trihydroxy-6,7,8,8a,9,10-hexahydro-5H-9,4b-(epiminoethano)phenanthrene-3-carboxamide]	no antinociceptive effect
